Reference: the supplement of paper PMC10307832

Key:
Assay in all cases: relative viability (nuclei count vs DMSO), 5 days (fraction); higher = more cells survive
Pazopanib + Decitabine = compound: Cc1ccc(Nc2nccc(N(C)c3ccc4c(C)n(C)nc4c3)n2)cc1S(N)(=O)=O [Pazopanib] + Nc1ncn([C@H]2C[C@H](O)[C@@H](CO)O2)c(=O)n1 [Decitabine] (partner 2 µM)
Outline: (§1)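 After 5 days of treatment, lung cancer cells in 1536-well plates were fixed and stained in a single step (final 0.05% Triton X-100, 1% formaldehyde, 1 ug/ml Hoechst) and their nuclei counted on 4× images. Treatment had been applied by pin tool the day after seeding as one drug alone or as a fixed anchor-drug dose with five library-drug doses (not always all listed) in √10 steps. Relative viability is the nuclei count of treated wells divided by that of vehicle wells, and values are medians of duplicate plates.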

Ponatinib + Linsitinib = compound: Cc1ccc(C(=O)Nc2ccc(CN3CCN(C)CC3)c(C(F)(F)F)c2)cc1C#Cc1cnc2cccnn12 [Ponatinib] + C[C@]1(O)C[C@@H](c2nc(-c3ccc4ccc(-c5ccccc5)nc4c3)c3c(N)nccn32)C1 [Linsitinib] (partner 1 µM)
Outline: as §1

Ponatinib + Crizotinib = compound: Cc1ccc(C(=O)Nc2ccc(CN3CCN(C)CC3)c(C(F)(F)F)c2)cc1C#Cc1cnc2cccnn12 [Ponatinib] + C[C@@H](Oc1cc(-c2cnn(C3CCNCC3)c2)cnc1N)c1c(Cl)ccc(F)c1Cl [Crizotinib] (partner 1 µM)
Outline: as §1

Pazopanib + Palbociclib = compound: Cc1ccc(Nc2nccc(N(C)c3ccc4c(C)n(C)nc4c3)n2)cc1S(N)(=O)=O [Pazopanib] + CC(=O)c1c(C)c2cnc(Nc3ccc(N4CCNCC4)cn3)nc2n(C2CCCC2)c1=O [Palbociclib] (partner 0.5 µM)
Outline: as §1

| Cell Line | relative viability (Pazopanib + Decitabine; first compound 0.01 µM) | relative viability (Pazopanib + Decitabine; first compound 0.03162 µM) | relative viability (Pazopanib + Decitabine; first compound 0.1 µM) | relative viability (Pazopanib + Decitabine; first compound 0.3162 µM) | relative viability (Pazopanib + Decitabine; first compound 1 µM) | relative viability (Ponatinib + Linsitinib; first compound 0.002 µM) | relative viability (Ponatinib + Linsitinib; first compound 0.006325 µM) | relative viability (Ponatinib + Linsitinib; first compound 0.06325 µM) | relative viability (Ponatinib + Linsitinib; first compound 0.2 µM) | relative viability (Ponatinib + Crizotinib; first compound 0.002 µM) | relative viability (Ponatinib + Crizotinib; first compound 0.006325 µM) | relative viability (Ponatinib + Crizotinib; first compound 0.06325 µM) | relative viability (Ponatinib + Crizotinib; first compound 0.2 µM) | relative viability (Pazopanib + Palbociclib; first compound 0.01 µM) | relative viability (Pazopanib + Palbociclib; first compound 0.03162 µM) | relative viability (Pazopanib + Palbociclib; first compound 0.1 µM) | relative viability (Pazopanib + Palbociclib; first compound 0.3162 µM) | relative viability (Pazopanib + Palbociclib; first compound 1 µM) |
| --- | --- | --- | --- | --- | --- | --- | --- | --- | --- | --- | --- | --- | --- | --- | --- | --- | --- | --- |
| HCC-827 | 0.333 | 0.322 | 0.293 | 0.355 | 0.348 | 1.03 | 0.968 | 1.03 | 0.966 | 0.819 | 0.964 | 0.924 | 0.928 | 0.558 | 0.456 | 0.516 | 0.444 | 0.471 |
| HOP-62 | 0.208 | 0.238 | 0.228 | 0.288 | 0.196 | 0.902 | 0.663 | 0.868 | 0.773 | 0.876 | 0.94 | 0.901 | 0.917 | 0.436 | 0.472 | 0.424 | 0.493 | 0.46 |
| IA-LM | – | – | – | – | – | 0.538 | 0.512 | 0.529 | 0.535 | 0.6 | 0.737 | 0.887 | 0.7 | – | – | – | – | – |
| LC-2-ad | 0.88 | 0.644 | 0.915 | 0.85 | 0.776 | 0.802 | 0.728 | 0.644 | 0.555 | 0.482 | 0.417 | 0.418 | 0.421 | 0.552 | 0.459 | 0.56 | 0.45 | 0.487 |
| LCLC-97TM1 | – | 0.229 | 0.247 | 0.223 | 0.237 | – | 0.218 | – | 0.197 | – | 0.369 | – | 0.413 | – | 0.202 | 0.212 | 0.205 | 0.264 |
| LCLC-103H | 0.653 | 0.708 | 0.735 | 0.682 | 0.679 | 0.952 | 1.15 | 1.15 | 0.889 | 1.03 | 1.13 | 1.17 | 1.03 | 0.409 | 0.517 | 0.495 | 0.439 | 0.5 |
| LK-2 | 0.228 | 0.318 | 0.324 | 0.243 | 0.277 | 0.599 | 0.623 | 0.592 | 0.351 | 0.26 | 0.217 | 0.234 | 0.269 | 0.615 | 0.803 | 0.69 | 0.709 | 0.729 |
| LOU-NH91 | 0.808 | 0.78 | 0.828 | 0.828 | 0.769 | 0.995 | 0.966 | 0.977 | 0.942 | 0.709 | 0.777 | 0.758 | 0.731 | 0.511 | 0.502 | 0.564 | 0.538 | 0.547 |
| LU99A | – | 0.916 | 0.935 | 0.953 | 0.961 | 0.5 | 0.501 | 0.611 | 0.527 | 0.512 | 0.53 | 0.564 | 0.59 | – | 0.39 | 0.447 | 0.444 | 0.416 |
| LXF-289 | 0.395 | 0.351 | 0.39 | 0.373 | 0.381 | 0.936 | 0.959 | 0.992 | 0.933 | 0.769 | 0.825 | 0.821 | 0.792 | 0.591 | 0.581 | 0.629 | 0.571 | 0.598 |
